Source: patent publication US20130338221A1, “PHOTOAGING PROTECTIVE COMPOSITION CONTAINING CHROMENES DERIVED FROM SARGASSUM HORNERI” (PUKYONG NATIONAL UNIVERSITY INDUSTRY-UNIVERSITY C, priority 2012, published 2013)

What was measured:
hyaluronan = test: Hyaluronan secretion ELISA in UV-A irradiated fibroblasts; assay type: cell-based, human
Protocol: (§1) For measuring various collagen degradation MMP and inflammatory cytokine, collagen content in a cell, an enzyme-linked immunosorbent assay was used after UV-A irradiation. After irradiating HDF cell with UV-A, the cells were incubated with various concentrations of sample. After 24 h, the supernatants of the HDF cells were collected, and used for testing MMP, cytokine, hyaluronan, and collagen. For testing, Biotrak™ ELISA kits (Amersham Pharmacia Biosciences, England, UK), procollagen ELISA kit (Takara Bio Inc), and Hyaluronan ELISA kits (R&D system) were used according to the manufacturer's instructions.
Then, we evaluated effect of chromenes on hyaluronan secretion by UV-A irradiation.

MMP-13 = MMP-13 secretion ELISA in UV-A irradiated HDF; assay type: cell-based, human
Protocol: as §1
(§2) Collagens are known to as main component of the skin and degraded by collagenase MMPs. Among MMPs, MMP-1, MMP-8 and MMP-13 are family of collagenases which are capable of degrading triple-helical fibrillar collagens. […] Therefore, inhibitory effect of chromenes on collagenase MMP secretions from the UV-A irradiated dermal fibroblasts was determined using ELISA assay.

[1] = system: membrane lipid hydroperoxides of HDF cells; test: Cell membrane lipid peroxidation (DPPP) after UV-A; assay type: cell-based, human
Protocol: Intracellular lipid hydroperoxide levels were determined by the fluorescence probe, diphenyl-1-pyrenylphosphine (DPPP). HDF cells were seeded into fluorescence microtiter 96-well plates at a density of […] using serum-free media. After 80% confluence, HDF cells were treated with various concentrations of compounds and incubated for 24 h after 6 J/cm^2 of UV-A irradiation. Then, cells were washed three times with PBS and labeled with 13 μM DPPP (dissolved in DMSO) for 24 h at 37° C. in the dark. DPPP oxide fluorescence intensity was measured after 24 h at the excitation wavelength (Ex) of 361 nm and the emission wavelength (Em) of 380 nm using a GENios® fluorescence microplate reader (Tecan Austria GmbH, Salzburg, Austria).
The levels of lipid hydroperoxides in the presence and absence of chromenes were examined by using specific fluorescence probe, DPPP (FIG. 16). DPPP has been used as a sensitive method for measuring lipid hydroperoxides of cell membranes, since it successfully incorporates into membranes and oxidizes hydroperoxides to emit DPPP-oxide fluorescence.

type I procollagen = test: Type I procollagen ELISA in UV-A irradiated HDF; assay type: cell-based, human
Protocol: as §1
Alterations of collagen have been thought to be a cause of the clinical skin changes of photoaging. The dermis contains predominantly type I collagen (85-90%) and the precursor molecules of collagen are called procollagen, which is synthesized in the form of polypeptide chains of type I collagen in dermal fibroblasts. UV irradiation induces the activity and synthesis of MMP in human skin, which mediate collagen destruction that results in much connective tissue damage. Therefore, we also studied the effects of chromenes on the level of type I procollagen in UVA-irradiated cultured dermal fibroblasts. The procollagen level was determined in the culture medium by ELISA assay.

IL-1β = IL-1β secretion ELISA in UV-A irradiated HDF; assay type: cell-based, human
Protocol: as §1
(§3) To investigate effect of chromenes on the cytokine production in UV-A irradiated dermal fibroblasts, inflammatory cytokine production was measured using ELISA assay (FIGS. 18 to 20).

IL-6 = IL-6 secretion ELISA in UV-A irradiated HDF; assay type: cell-based, human
Protocol: as §1, §3

[2] = system: intracellular reactive oxygen species (ROS) in HDF cells; test: Intracellular ROS generation by UV-A (DCFH-DA); assay type: cell-based, human
Protocol: Intracellular formation of reactive oxygen species (ROS) was assessed using oxidation sensitive dye 2′,7′-dichlorofluorescin diacetate (DCFH-DA) as the substrate. HDF cells growing in fluorescence microtiter 96-well plates for 24 h were exposed to UV-A (6 J/cm^2). The exposed cells were loaded with 20 μM DCFH-DA dissolved in PBS and incubated for 30 min in the dark at 37° C. humidified atmosphere of 5% CO2. […] The formation of 2′,7′-dichlorofluorescein (DCF) dissolved in PBS due to oxidation of DCFH in the presence of various ROS was read after every 20 min at the excitation wavelength (Ex) of 485 nm and the emission wavelength (Em) of 535 nm using a fluorescence microplate reader (Tecan Austria GmbH, Salzburg, Austria).
The cell system was labeled with DCFH-DA and followed by UV-A irradiation.

HDF cells = test: Phototoxicity determination (MTT, compounds present during UV-A); assay type: cell-based, human; details: retinoic acid 5 μM during UV-A
Protocol: HDF cells are exposed to UV-A light in the presence of chromenes and retinoic acid in concentrations of 5, 10, and 20 μM and 1, 2, and 5 μM, respectively. After 24 h, cell viability was determined by MTT assay.
In order to determine whether compounds have phototoxic effect, the cell viability of dermal fibroblasts was evaluated using MTT assay. Cells were co cultured with compounds and retinoic acid during UV-A irradiation. […] Therefore, the concentration of 1 μM retinoic acid was selected as a positive control for further experiment.

[3] = system: cell membrane proteins of HDF cells; test: Cell membrane protein oxidation (carbonyl groups, DNPH) after UV-A; assay type: cell-based, human
Protocol: The amount of carbonyl groups in cell membrane proteins was determined to assess the cellular protein oxidation level that is a standard of determining the degree of cell membrane damage. HDF cells were co-cultured with various concentrations of compounds for 24 h after 6 J/cm^2 of UV-A irradiation. Cell were washed three times with PBS and lysed in lysis buffer without reducing agents (25 mM Tris-HCl, pH 7.8, 2 mM EDTA, 180 mM NaCl and 1% Triton X-100). Aliquots of cell lysates were separately incubated then trichloroacetic acid (400 μl from 20% trichloroacetic acid) was added to each reaction mixture and solubilized proteins were precipitated by centrifugation at 3,000 rpm for 15 minutes. Precipitated protein was resuspended in 2% 2,4-dinitrophenylhydrazine (2 mM HCl) and incubated at room temperature for 20 min. The protein was precipitated again with 20% trichloroacetic acid and the pellet was washed three times with ethanol:ethylacetate (1:1 v/v) solution. The pellet was then dissolved in 6 M guanidin hydrochloride (500 μl) and incubated for 15 min at 37° C. After centrifugation at 1,500 g for 5 min, absorbance of the supernatant was recorded against a complementary blank at 370 nm using a GENios® fluorescence microplate reader (Tecan Austria GmbH, Salzburg, Austria).

MMP-1 = MMP-1 secretion ELISA in UV-A irradiated HDF; assay type: cell-based, human
Protocol: as §1, §2

[4] = system: intracellular glutathione (GSH) in HDF cells; test: Intracellular GSH level (mBBr) after UV-A; assay type: cell-based, human
Protocol: Intracellular glutathione (GSH) level in intact cells was determined using monobromobimane as a thiol-staining reagent. HDF cells were seeded into fluorescence microtiter 96-well plates at a density of 5×10^3 cells/well. Cell were washed three times with PBS and treated with various concentrations of the compounds after 6 J/cm^2 of UV-A irradiation and incubated for 30 min. 0.04 mM of Monobromobimane was added to cells and staining was carried out for 24 h at 37° C. in the dark. After staining fluorescence intensity was measured (excitation and emission: 360 and 465 nm) using a GENios® fluorescence microplate reader (Tecan Austria GmbH, Salzburg, Austria).
GSH is the most abundant low molecular weight thiol inside mammalian cells, and changes in glutathione level directly reflect intracellular redox alterations. To investigate the relationship between the increased ROS and the level of antioxidant materials in cells, the intracellular GSH level was measured.

[5] = system: human dermal fibroblasts (HDF cells); test: Protective effect on viability of UV-A irradiated dermal fibroblasts (MTT assay); assay type: cell-based
Protocol: HDF cells were seeded in 24-well plate at a density of 1×10^5 cells/well with DMEM containing 10% FBS, 2 mM gluramine and 100 μg/ml penicillin-streptomycin at 37° C. humidified atmosphere of 5% CO2. After incubation for 24 h, the cells were exposed to UV-A energy at the range of 6 J/cm^2 (365 nm UV-A light source, Bio-Sun lamp, Vilber Lourmat, Marine, France) in 200 μl of phosphate buffered saline (PBS) to each well. After UV-A irradiation, the cells were incubated for 24 h in serum-free DMEM.
Viability level of HDF cell was determined through ability of mitochondria capable of converting 3-(4,5-dimethylthiazol-2-yl)-2,5-diphenyl tetrazolium bromide (MTT) into a insoluble formazan product. Dermal fibroblasts were grown in 96-well plates at a density of 1×10^4 cells/well. After 24 h, after irradiating UV-A (6 J/cm^2) to the cell, the cells were cultured with the chromenes sample or without the chromenes sample at 37° C. humidified atmosphere of 5% CO2. The supernatant medium was removed, and the cells were incubated with 100 μl of MTT (1 mg/ml) for 4 h. The unconvertived MTT was removed, dimethyl sulfoxide (DMSO) was added, and then cell viability was measured at the absorbance at 540 nm using a microplate reader (Tecan Austria GmbH, Austria) to determine the amount of formazan in a cell. Relative cell viability was quantified as a percentage compared to the control group.

TNF-α [6] = test: TNF-α secretion ELISA in UV-A irradiated HDF; assay type: cell-based, human
Protocol: as §1, §3

hyaluronan synthase 1 = test: Immunofluorescent labeling of hyaluronan synthase 1 after UV-A; assay type: cell-based, human; details: 10 μM
Protocol: (§4) Immunostaining is used to determine the subcellular distribution and organization of proteins. Cells were grown in 6-well plates, Aspirate liquid, then cover cells to a depth of 2-3 mm with 4% formaldehyde in PBS for 15 min at room temperature. Aspirate fixative, rinse three times in PBS for 5 minutes each then incubated primary antibody and for overnight at 4° C. Rinse three times in PBS for 5 min each. Incubate specimen in fluorochrome-conjugated secondary antibody diluted in Antibody Dilution Buffer for 1-2 h at room temperature in dark and incubated with Hoechest 33342 (Sigma-Aldrich Co. MO, USA). For best results, examine specimens immediately using appropriate excitation wavelength. For long-term storage, store slides flat at 4° C. protected from light. The image of HDF cells were collected using Leica invented microscopy (DM IRB) with 40× objective and a digital CCD camera (CTR 6000, Leica, Wetzlar, Germany) under fluorescence.
(§5) It has been reported that the exposure to UV-A causes degradation of collagen and fibronectin in the extracellular matrix. […] Results were evaluated through the images of the labeling assay under a fluorescent microscope with the previously mentioned excitation and emission values.

TNF-α [7] = test: TNF-α mRNA and protein expression (RT-PCR, Western blot) in UV-A irradiated HDF; assay type: cell-based, human
Protocol: Total cellular RNA was isolated using Trizol reagent (Invitrogen Co., CA, USA). The 2 μg of isolated RNA was reverse transcribed into cDNA using oligo-(dT) primer (Promega, Madison, Wis., USA). Target cDNA was amplified using the forward and reverse primer sequences. The amplification was carried out at 95° C. for 45 sec, 60° C. for 50 sec and 72° C. for 60 sec for cycles. After amplification step, extension process proceeded consecutively at 72° C. for 5 min. […] Gels were stained with 1 mg/ml of EtBr and photographed by UV illumination using AlphaEase® gel image analysis software (Alpha Innotech., San Leandro, Calif., USA).
Whole cells were lysed in RIPA buffer (Sigma-Aldrich Corp., St. Louis, USA). After centrifugation, total protein amount of cell lysates was determined using Lowry method (BioRad Laboratories, Hercules, Calif., USA). […] All primary monoclonal antibodies were diluted with TBS-T at 1:1000 ratio. Bound antibodies were detected by horseradish peroxidase-conjugated secondary antibodies for 1 h at room temperature and the immunoreactive proteins were detected using a chemiluminescent ECL assay kit (Amersham Pharmacia Biosciences, England, UK) according to the manufacturer's instructions. Western blot bands were visualized using a LAS3000® Luminescent image analyzer (Fujifilm Life Science, Tokyo, Japan).

fibronectin = test: Immunofluorescent labeling of fibronectin after UV-A; assay type: cell-based, human; details: 10 μM
Protocol: as §4, §5

[8] = Homo sapiens, retinoic acid 1 μM
[9] = Homo sapiens, HDF, retinoic acid 1 μM
[10] = A and B 5 to 20 μM, C 1 to 10 μM

CC1=C(/C=C/C(C)=C/C=C/C(C)=C/C(=O)O)C(C)(C)CCC1 [Retinoic acid, retinoic acid, reference compound]
Hyaluronan (%) (hyaluronan; retinoic acid 1 μM): 31.11%
inhibition at 1 µM (MMP-13; [8]): 37.1%
inhibition at 1 µM [1, 9]: 21.6%
Type I procollagen secretion level (type I procollagen; 1 μM, culture medium, UV-A irradiated HDF): 60 ng/mL
Procollagen (%) (type I procollagen; retinoic acid 1 μM): 57.89%
inhibition at 1 µM (IL-1β; [8]): 6.71%
inhibition at 1 µM (IL-6; [8]): 14.1%
IL-6 level after treatment (IL-6; at the same concentration (1 μM), UV-A irradiated HDF): 119 pg/mL
ROS scavenging (%) ([2]; retinoic acid 1 μM): 46.60%
Phototoxicity (HDF cells): a little phototoxic effect
inhibition at 1 µM [3, 9]: 55.4%
inhibition at 1 µM (MMP-1; [8]): 30.7%
Enhancement of GSH level (%) ([4]; retinoic acid 1 μM): 15.85%
Fibroblasts protection (%) ([5]; retinoic acid 1 μM): 12.21%
inhibition at 1 µM (TNF-α [6]; [8]): 24.4%

CC(C)=CCC/C(=C/CC/C(C)=C/CC[C@]1(C)CCc2cc(O)cc(C)c2O1)C(=O)O [Compound A, sargachromenol]
Hyaluronan synthase 1 amount (hyaluronan synthase 1): reduced
Hyaluronan (%) (hyaluronan; samples 10 μM): 16.67%
MMP-13 secretion (in words) (MMP-13; dose-dependent): significantly reduced
MMP-13 inhibition (%) (MMP-13; samples 10 μM): 23.82%
Inhibition of lipid peroxidation (%) ([1]; samples 10 μM): 15.63%
Procollagen (%) (type I procollagen; samples 10 μM): 115.79%
IL-1β secretion (in words) (IL-1β; [10]): slightly reduced
Inhibition of IL-1β secretion (%) (IL-1β; samples 10 μM): 10.07%
IL-6 secretion (in words) (IL-6; [10]): slightly reduced
Inhibition of IL-6 secretion (%) (IL-6; samples 10 μM): 11.11%
Inhibition of TNF-α expression (TNF-α [7]): failed to show significant activity
ROS scavenging (%) ([2]; samples 10 μM): 38.58%
Inhibition of protein oxidation (%) ([3]; samples 10 μM): 30.57%
MMP-1 secretion (in words) (MMP-1; dose-dependent): significantly reduced
MMP-1 inhibition (%) (MMP-1; samples 10 μM): 27.76%
Enhancement of GSH level (%) ([4]; samples 10 μM): 23.17%
Protection of fibronectin decomposition (fibronectin): not as significant as compound C
Fibroblasts protection (%) ([5]; samples 10 μM): 37.25%
TNF-α secretion (in words) (TNF-α [6]; [10]): slightly reduced
Inhibition of TNF-α secretion (%) (TNF-α [6]; samples 10 μM): 20.59%
